This passage reports IC50 and inhibition results from PMC5526551, “New hydrazonoindolin-2-ones: Synthesis, exploration of the possible anti-proliferative mechanism of action and encapsulation into PLGA microspheres” (PLoS ONE, 2017).

pIC50: −log10 of the molar value. Where two headings read alike, the source gives them in different places.

One may read the pIC50 as the negative decadic logarithm of the IC50, by convention in mol/L. What is called inhibition is the share of the control response that was lost under treatment.

One assay has as its system IEC-6. Description: Selectivity: growth inhibition in non-tumorigenic cell line. The following applies: Rattus norvegicus, 72 h, maximum 25 μM, read-out: IC50 Intestine IEC-6. In kind it is cell-based. Here is the method:
(§1) This assessment of the growth inhibitory activity of the compounds was tested in quadruplicate at a maximum concentration of 25 μM, followed by 10 serially diluted concentrations.
A549, IEC-6, MCF-10A and 3t3 cells were harvested from 90-95% confluent cultures in 10 cm dishes, and diluted in growth media recommended by the suppliers as follows: A549 cells were cultured in RPMI-1640 medium supplemented with 5% fetal bovine serum (FBS). IEC-6 cells were obtained from ATCC and cultured in Dulbecco’s modified Eagle’s medium (DMEM) supplemented with 10% FBS and 0.1 unit/mL recombinant insulin. Swiss 3t3 cells were obtained from ATCC and cultured in DMEM supplemented with 10% FBS. […]
(§2) At the end of the treatment period, assay plates were allowed to cool to RT for 10 min prior to addition of 25 µL per well Promega CellTiterGlo reagent, followed by an additional 10 min incubation at RT. The resulting luminescence was quantitated using a Molecular Devices Spectramax Paradigm.Percent growth inhibition was calculated using equation (1). The potency of compounds was determined using the non-linear dose response algorithm (four-parameter logistic fit) with GraphPad Prism 5 software.

A further assay concerns MCF-10A. The assay is described as above. In kind it is cell-based, human. As to conditions: 72 h, maximum 25 μM, read-out: IC50 Breast MCF-10A. As for the experimental part:
as §1
(§3) A549, IEC-6, MCF-10A and 3t3 cells were harvested from 90-95% confluent cultures in 10 cm dishes, and diluted in growth media recommended by the suppliers as follows: A549 cells were cultured in RPMI-1640 medium supplemented with 5% fetal bovine serum (FBS). IEC-6 cells were obtained from ATCC and cultured in Dulbecco’s modified Eagle’s medium (DMEM) supplemented with 10% FBS and 0.1 unit/mL recombinant insulin. Swiss 3t3 cells were obtained from ATCC and cultured in DMEM supplemented with 10% FBS. MCF-10Acells were obtained from ATCC and cultured in a mixture DMEM and F12 media supplemented with 5% fetal bovine serum (FBS), 20 ng/mL recombinant epidermal growth factor, 10 µg/mL insulin, 0.5 µg/mL hydrocortisone and 100 ng/mL cholera toxin. An appropriate concentration of cells was prepared to add 1,250 cells in a volume of 25 µL per well in tissue culture treated BD 384-well microplates, then incubated overnight at 37 °C.
(§4) Compound 7e and the positive control, sunitinib, were diluted to a concentration of 25 µM in DMSO. Concentrated dosing solutions (double the final concentration) were prepared by dilution of the DMSO stocks 1:500 in growth medium. Two-fold serial dilutions were then prepared in medium containing 0.2% DMSO to maintain a constant concentration of vehicle throughout the concentration range of the compound. […]
as §2

The next assay has as its system A549. The assay is described as follows: Growth inhibition in NSCLC comparison line (selectivity and multidrug resistance studies). In kind it is cell-based, human. The following applies: maximum 25 μM, read-out: IC50 NSCLC A-549 (sensitive). Here is the method:
as §1
(§5) Compound 7e was analyzed for cancer cell growth inhibitory activity in a sensitive NSCLC cell line (A549) and a multidrug resistant lung cancer cell line (NCI-H69AR) which expresses the ABCC1 efflux pump protein. This assessment of activity tested compounds in quadruplicate at a maximum concentration of 25 μM, followed by 10 serially diluted concentrations.
as §3
as §4, with “compound. Each of these was added in equal volume (25 µL) to four wells on each cell assay plate, along with vehicle control. The highest concentration for serial dilutions of the positive control sunitinib was prepared exactly as the experimental compounds.” for “compound.”
At the end of the treatment period, assay plates were allowed to cool to RT for 10 min prior to addition of 25 µL per well Promega CellTiterGlo reagent, followed by an additional 10 min incubation at RT. The resulting luminescence was quantitated using a Molecular Devices Spectramax Paradigm.Percent growth inhibition was calculated using equation (1). The potency of compounds was determined using the non-linear dose response algorithm (four-parameter logistic fit) with GraphPad Prism 5 software. […]
Compound 7e was diluted to a concentration of 25 µM in DMSO. […] The resulting luminescence was quantitated using a Molecular Devices Spectramax Paradigm. […]

The subject of a further assay is NCI-H69AR. Description: Growth inhibition in multidrug resistant lung cancer cell line. In kind it is cell-based. The following applies: 72 h, maximum 25 μM. Here is the method: as §5
A549 and H69AR cells were harvested from 90-95% confluent 10 cm dishes, and diluted in growth media. An appropriate concentration of cells was prepared to add 1,250 cells in a volume of 25 µL per well in tissue culture treated BD 384-well microplates, then incubated overnight at 37 °C.
Compound 7e was diluted to a concentration of 25 µM in DMSO. Concentrated dosing solutions (double the final concentration) were prepared by dilution of the DMSO stocks 1:500 in growth medium. Two-fold serial dilutions were then prepared in medium containing 0.2% DMSO to maintain a constant concentration of vehicle throughout the concentration range of the compound. Each of these was added in equal volume (25 µL), to four wells on each cell assay plate, along with the vehicle control. The highest concentration for serial dilution of the positive control compound sunitinib was prepared exactly as the experimental compound 7e. Cells were incubated at 37°C with the compounds for a further 72 h. At the end of the treatment period, assay plates were allowed to cool to RT for 10 min prior to addition of 25 µL per well Promega CellTiterGlo reagent, followed by an additional 10 min incubation at RT. The resulting luminescence was quantitated using a Molecular Devices Spectramax Paradigm.
Percent growth inhibition was calculated using equation (1). The potency of compounds was determined using the non-linear dose response algorithm (four-parameter logistic fit) with GraphPad Prism 5 software.

Assay [1] concerns HT-29, ZR-75 and A-549 cell lines. The assay is described as follows: Average anti-proliferative activity over the three cancer cell lines. In kind it is cell-based, human. As to conditions: Homo sapiens, average of HT-29, ZR-75, A-549; for inhibition at 30 µM: read-out: Average Growth Inhibition %. As for the experimental part:
Twenty compounds, i.e. 4a-o and 7a-e, were analyzed for cancer cell growth inhibitory activity. These studies were carried out using cells derived from human lung, colon and breast tumors (A549, HT-29 and ZR-75 cells, respectively). This initial assessment of activity tested each compound in quadruplicate at a single concentration of 30 μM, if solubility permitted.
Therefore, they were subjected to quantitative inhibitory concentration 50% (IC50) determination for their cell growth inhibitory activity towards the A549, HT-29 and ZR-75 cancer cell lines.
A549, HT-29, ZR-75 were obtained from the American Type Culture Collection (ATCC). Cells were harvested from 90-95% confluent 10 cm dishes, and diluted in growth media (RPMI-1640 supplemented with 5% fetal bovine serum). An appropriate concentration of cells were prepared to add 1,250 cells in a volume of 25 µL per well in tissue culture treated Griener 384-well microplates, then incubated overnight at 37°C. Compound 7e was diluted to a concentration of 30 µM in DMSO. Concentrated dosing solutions of twice the final concentration were prepared by dilution of the DMSO stocks 1:500 in growth media. Two-fold serial dilutions were then prepared in medium containing 0.2% DMSO to maintain a constant concentration of vehicle throughout the concentration range of the compound. Each of these was added in an equal volume (25 µL) to four wells on each cell assay plate, along with the vehicle control. The highest concentration for serial dilutions of the positive control (sunitinib) was prepared exactly as the experimental compound 7e. Cells were incubated with the compounds for a further 72 h.
The potency of compounds was determined using the non-linear dose response algorithm (four-parameter logistic fit) with GraphPad Prism 5 software.

Consider `O=C1Nc2ccc(Br)cc2C1=NN=C1C(=O)N(Cc2ccccc2)c2ccccc21` [Compound 7e, 1-Benzyl-3-((5-bromo-2-oxoindolin-3-ylidene)hydrazono)indolin-2-one], for which the pIC50 is 5.43 in the assay on IEC-6; 5.76 in the assay on MCF-10A; 5.75 in the assay with MCF-10A (Homo sapiens, MCF-10A); 5.80 in the assay on A549 (72 h); 5.81 in the assay on A549 (Homo sapiens, A549, 72 h); 4.90 in the assay on NCI-H69AR. Also, the pIC50 with NCI-H69AR (NCI-H69AR) is 4.90; in assay [1] it was 5.63. Also, the inhibition at 30 µM in assay [1] is 96.3%.

`CCN(CC)CCNC(=O)c1c(C)[nH]c(/C=C2\C(=O)Nc3ccc(F)cc32)c1C` [Sunitinib, sunitinib, reference compound]: the pIC50 was 5.34 with IEC-6; 5.35 with MCF-10A (Homo sapiens, MCF-10A); 5.51 in the assay with A549 (72 h); 5.51 with A549 (Homo sapiens, A549, 72 h); 5.24 in the assay on NCI-H69AR; 5.23 in the assay on NCI-H69AR (NCI-H69AR). In assay [1], this compound gave a pIC50 of 5.09. The inhibition at 30 µM in assay [1] came to 78.7%.
